Results published in paper PMC11053857, “Synthesis, In Vitro Biological Evaluation and Molecular Modeling of Benzimidazole-Based Pyrrole/Piperidine Hybrids Derivatives as Potential Anti-Alzheimer Agents” (Pharmaceuticals, 2024).
Where two headings read alike, the source gives them in different places.

Columns and labels:
[1] = biological target: butyrylcholinesterase (BuChE) (Homo sapiens, UniProt P06276); test: biochemical; details: in vitro, 25 °C, pH 8.0, triplicate, standards listed separately for series 1–13 and 14–26
Method: (§1) The enzyme inhibition activities for acetylcholinesterase and butyrylcholinesterase were determined using the method of Ellman et al. with slight modifications. The 62.0 mM sodium phosphate buffer (pH 8.0, 880 μL) used contained 0.002 M of DTNB (5,5′-dithiobis-2-nitrobenzoic acid). AChE and BuChE solutions (40 μL) were added with the test compounds (40 μL) and kept at 25 °C for 10–15 min. The acetylthiocholine or butyrylthiocholine (40 μL) were added just before the initiation of the catalytic reaction. The enzymatic hydrolysis of the substrates encompassing the formation of yellow 5-thio-2-nitrobenzoate anion products was monitored at 412 nm (15 min). The inhibition reactions were repeated in triplicate with a Shimadzu spectrophotometer (Kyoto, Japan).

[2] = biological target: acetylcholinesterase (AChE) (Homo sapiens, UniProt P22303); test: biochemical
Method: as §1, with “The enzymatic hydrolysis of the substrates encompassing the formation of yellow 5-thio-2-nitrobenzoate anion products was monitored at 412 nm (15 min).” left out

[3] = read-out: BuChE Inhibition IC50 ± SEM
[4] = in vitro, 25 °C, pH 8.0, triplicate, standards listed separately for series 1–13 and 14–26, read-out: AChE Inhibition IC50 ± SEM

butyrylcholinesterase (BuChE), sequence (P06276 29-602): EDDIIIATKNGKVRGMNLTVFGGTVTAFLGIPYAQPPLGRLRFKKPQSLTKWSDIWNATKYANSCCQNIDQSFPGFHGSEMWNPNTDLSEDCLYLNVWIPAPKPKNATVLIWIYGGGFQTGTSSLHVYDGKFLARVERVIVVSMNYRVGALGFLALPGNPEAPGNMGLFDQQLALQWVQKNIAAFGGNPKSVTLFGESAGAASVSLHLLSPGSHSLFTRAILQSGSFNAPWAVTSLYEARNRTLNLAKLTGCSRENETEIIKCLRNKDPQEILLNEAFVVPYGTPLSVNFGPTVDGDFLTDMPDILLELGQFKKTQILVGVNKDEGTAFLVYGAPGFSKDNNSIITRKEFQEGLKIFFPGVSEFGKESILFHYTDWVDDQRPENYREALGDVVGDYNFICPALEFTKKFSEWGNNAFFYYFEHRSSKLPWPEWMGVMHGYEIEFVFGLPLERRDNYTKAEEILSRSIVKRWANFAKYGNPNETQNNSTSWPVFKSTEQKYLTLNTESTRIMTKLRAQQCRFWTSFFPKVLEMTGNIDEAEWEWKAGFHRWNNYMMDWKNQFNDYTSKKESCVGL
acetylcholinesterase (AChE), sequence (P22303 32-614, species assumed): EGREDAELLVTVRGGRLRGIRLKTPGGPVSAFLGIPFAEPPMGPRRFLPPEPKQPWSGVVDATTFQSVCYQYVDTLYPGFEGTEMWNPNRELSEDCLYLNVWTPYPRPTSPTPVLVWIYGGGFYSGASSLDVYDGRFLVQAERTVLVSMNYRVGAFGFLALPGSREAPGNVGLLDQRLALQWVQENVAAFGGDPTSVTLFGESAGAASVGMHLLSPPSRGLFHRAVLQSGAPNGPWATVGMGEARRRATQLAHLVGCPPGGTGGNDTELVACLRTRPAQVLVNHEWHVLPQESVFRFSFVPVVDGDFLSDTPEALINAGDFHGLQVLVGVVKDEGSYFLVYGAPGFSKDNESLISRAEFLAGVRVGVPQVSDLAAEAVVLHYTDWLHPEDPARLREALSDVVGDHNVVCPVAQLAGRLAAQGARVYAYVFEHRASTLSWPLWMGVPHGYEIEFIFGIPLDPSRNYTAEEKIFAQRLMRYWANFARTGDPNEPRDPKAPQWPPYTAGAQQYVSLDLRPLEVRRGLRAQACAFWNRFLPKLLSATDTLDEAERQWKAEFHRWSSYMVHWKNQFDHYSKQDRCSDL

Row | SMILES | IC50 [1, 3] [µM] | IC50 [2, 4] [µM] | IC50 ([1]; BuChE Inhibition IC50 ± SEM) [µM] | IC50 [2] [µM]
1 | COc1ccc2[nH]c(SC/C(=N/N=C/c3cc[nH]c3)c3ccc(C)cc3)nc2c1 [Compound 1, 2-(((E)-2-(((E)-(1H-pyrrol-3-yl)methylene)hydrazono)-2-(p-tolyl)ethyl)thio)-5-methoxy-1H-benzo[d]imidazole] | 31.03 ± 0.11 | 27.11 ± 0.02 |  | 
2 | COc1ccc(/C(CSc2nc3cc(OC)ccc3[nH]2)=N\N=C\c2cc[nH]c2)cc1 [Compound 2, 2-(((E)-2-(((E)-(1H-pyrrol-3-yl)methylene)hydrazono)-2-(4-methoxyphenyl)ethyl)thio)-5-methoxy-1H-benzo[d]imidazole] | 23.22 ± 0.15 | 20.04 ± 0.15 |  | 
3 | COc1ccc2[nH]c(SC/C(=N/N=C/c3cc[nH]c3)c3ccc(-c4ccccc4)cc3)nc2c1 [Compound 3, 2-(((E)-2-(((E)-(1H-pyrrol-3-yl)methylene)hydrazono)-2-([1,1′-biphenyl]-4-yl)ethyl)thio)-5-methoxy-1H-benzo[d]imidazole] | 34.06 ± 0.14 | 30.11 ± 0.23 |  | 
4 | COc1ccc2[nH]c(SC/C(=N/N=C/c3cc[nH]c3)c3ccccc3OC)nc2c1 [Compound 4, 2-(((E)-2-(((E)-(1H-pyrrol-3-yl)methylene)hydrazono)-2-(2-methoxyphenyl)ethyl)thio)-5-methoxy-1H-benzo[d]imidazole] | 29.2 ± 0.8 | 26.2 ± 0.41 |  | 
5 | C(=N\N=C(\CSc1nc2ccccc2[nH]1)c1ccc(-c2ccccc2)cc1)/c1cc[nH]c1 [Compound 5, 2-(((E)-2-(((E)-(1H-pyrrol-3-yl)methylene)hydrazono)-2-([1,1′-biphenyl]-4-yl)ethyl)thio)-1H-benzo[d]imidazole] | 37.21 ± 0.23 | 34.16 ± 0.03 |  | 
6 | O=[N+]([O-])c1cccc(/C(CSc2nc3ccccc3[nH]2)=N\N=C\c2cc[nH]c2)c1 [Compound 6, 2-(((E)-2-(((E)-(1H-pyrrol-3-yl)methylene)hydrazono)-2-(3-nitrophenyl)ethyl)thio)-1H-benzo[d]imidazole] | 32.14 ± 0.21 | 28.12 ± 0.09 |  | 
7 | Cc1ccc(/C(CSc2nc3ccccc3[nH]2)=N\N=C\c2cc[nH]c2)cc1 [Compound 7, 2-(((E)-2-(((E)-(1H-pyrrol-3-yl)methylene)hydrazono)-2-(p-tolyl)ethyl)thio)-1H-benzo[d]imidazole] | 39.55 ± 0.03 | 36 ± 0.41 |  | 
8 | COc1ccccc1/C(CSc1nc2ccccc2[nH]1)=N\N=C\c1cc[nH]c1 [Compound 8, 2-(((E)-2-(((E)-(1H-pyrrol-3-yl)methylene)hydrazono)-2-(2-methoxyphenyl)ethyl)thio)-1H-benzo[d]imidazole] | 25.1 ± 0.44 | 21.03 ± 0.11 |  | 
9 | COc1ccc(/C(CSc2nc3ccccc3[nH]2)=N\N=C\c2cc[nH]c2)cc1 [Compound 9, 2-(((E)-2-(((E)-(1H-pyrrol-3-yl)methylene)hydrazono)-2-(4-methoxyphenyl)ethyl)thio)-1H-benzo[d]imidazole] | 28.01 ± 0.13 | 24.16 ± 0.21 |  | 
10 | O=[N+]([O-])c1cccc(/C(CSc2nc3cc([N+](=O)[O-])ccc3[nH]2)=N\N=C\c2cc[nH]c2)c1 [Compound 10, 2-(((E)-2-(((E)-(1H-pyrrol-3-yl)methylene)hydrazono)-2-(3-nitrophenyl)ethyl)thio)-5-nitro-1H-benzo[d]imidazole] |  |  | 21.6 ± 0.61 | 19.4 ± 0.6
11 | O=[N+]([O-])c1ccc2[nH]c(SC/C(=N/N=C/c3cc[nH]c3)c3ccc(-c4ccccc4)cc3)nc2c1 [Compound 11, 2-(((E)-2-(((E)-(1H-pyrrol-3-yl)methylene)hydrazono)-2-([1,1′-biphenyl]-4-yl)ethyl)thio)-5-nitro-1H-benzo[d]imidazole] | 37.76 ± 0.08 | 32.13 ± 0.18 |  | 
12 | COc1ccc(/C(CSc2nc3cc([N+](=O)[O-])ccc3[nH]2)=N\N=C\c2cc[nH]c2)cc1 [Compound 12] | 27.35 ± 0.06 | 23.1 ± 0.35 |  | 
13 | Cc1ccc(/C(CSc2nc3cc([N+](=O)[O-])ccc3[nH]2)=N\N=C\c2cc[nH]c2)cc1 [Compound 13, 2-(((E)-2-(((E)-(1H-pyrrol-3-yl)methylene)hydrazono)-2-(p-tolyl)ethyl)thio)-5-nitro-1H-benzo[d]imidazole] | 33.3 ± 0.42 | 27.08 ± 0.25 |  | 
14 | COc1ccc2[nH]c(SC/C(=N/N=C/N3CCCCC3)c3ccc(-c4ccccc4)cc3)nc2c1 [Compound 14, 2-(((E)-2-([1,1′-biphenyl]-4-yl)-2-(((E)-piperidin-1-ylmethylene)hydrazono)ethyl)thio)-5-methoxy-1H-benzo[d]imidazole] | 47.03 ± 0.15 | 42.01 ± 0.02 |  | 
15 | COc1ccc2[nH]c(SC/C(=N/N=C/N3CCCCC3)c3ccccc3OC)nc2c1 [Compound 15, 5-methoxy-2-(((E)-2-(2-methoxyphenyl)-2-(((E)-piperidin-1-ylmethylene)hydrazono)ethyl)thio)-1H-benzo[d]imidazole] | 29.11 ± 0.14 | 26.03 ± 0.15 |  | 
16 | COc1ccc(/C(CSc2nc3cc(OC)ccc3[nH]2)=N\N=C\N2CCCCC2)cc1 [Compound 16, 5-methoxy-2-(((E)-2-(4-methoxyphenyl)-2-(((E)-piperidin-1ylmethylene) hydrazono)ethyl)thio)-1H-benzo[d]imidazole] | 30.01 ± 0.23 | 28.13 ± 0.23 |  | 
17 | COc1ccc2[nH]c(SC/C(=N/N=C/N3CCCCC3)c3cccc([N+](=O)[O-])c3)nc2c1 [Compound 17, 5-methoxy-2-(((E)-2-(3-nitrophenyl)-2-(((E)-piperidin-1-ylmethylene)hydrazono)ethyl)thio)-1H-benzo[d]imidazole] | 27.3 ± 0.5 | 23.1 ± 0.41 |  | 
18 | COc1ccc2[nH]c(SC/C(=N/N=C/N3CCCCC3)c3ccc(C)cc3)nc2c1 [Compound 18, 5-methoxy-2-(((E)-2-(((E)-piperidin-1-ylmethylene)hydrazono)-2-(p-tolyl)ethyl)thio)-1H-benzo[d]imidazole] | 39.11 ± 0.13 | 36.15 ± 0.03 |  | 
19 | Cc1ccc(/C(CSc2nc3ccccc3[nH]2)=N\N=C\N2CCCCC2)cc1 [Compound 19, 2-(((E)-2-(((E)-piperidin-1-ylmethylene)hydrazono)-2-(p-tolyl)ethyl)thio)-1H-benzo[d]imidazole] | 36.22 ± 0.11 | 33.19 ± 0.09 |  | 
20 | O=[N+]([O-])c1cccc(/C(CSc2nc3ccccc3[nH]2)=N\N=C\N2CCCCC2)c1 [Compound 20, 2-(((E)-2-(3-nitrophenyl)-2-(((E)-piperidin-1-ylmethylene)hydrazono)ethyl)thio)-1H-benzo[d]imidazole] | 31.25 ± 0.03 | 29.04 ± 0.22 |  | 
21 | COc1ccccc1/C(CSc1nc2ccccc2[nH]1)=N\N=C\N1CCCCC1 [Compound 21, 2-(((E)-2-(2-methoxyphenyl)-2-(((E)-piperidin-1-ylmethylene)hydrazono)ethyl)thio)-1H-benzo[d]imidazole] | 38.02 ± 0.04 | 30.1 ± 0.41 |  | 
22 | COc1ccc(/C(CSc2nc3ccccc3[nH]2)=N\N=C\N2CCCCC2)cc1 [Compound 22, 2-(((E)-2-(4-methoxyphenyl)-2-(((E)-piperidin-1-ylmethylene)hydrazono)ethyl)thio)-1H-benzo[d]imidazole] | 34.31 ± 0.12 | 34.02 ± 0.11 |  | 
23 | O=[N+]([O-])c1ccc2[nH]c(SC/C(=N/N=C/N3CCCCC3)c3ccc(-c4ccccc4)cc3)nc2c1 [Compound 23] | 42.27 ± 0.41 | 38.2 ± 0.4 |  | 
24 | COc1ccc(/C(CSc2nc3cc([N+](=O)[O-])ccc3[nH]2)=N\N=C\N2CCCCC2)cc1 [Compound 24, 2-(((E)-2-(4-methoxyphenyl)-2-(((E)-piperidin-1-ylmethylene)hydrazono)ethyl)thio)-5-nitro-1H-benzo[d]imidazole] | 39.66 ± 0.24 | 32.05 ± 0.14 |  | 
25 | Cc1ccc(/C(CSc2nc3cc([N+](=O)[O-])ccc3[nH]2)=N\N=C\N2CCCCC2)cc1 [Compound 25, 5-nitro-2-(((E)-2-(((E)-piperidin-1-ylmethylene)hydrazono)-2-(p-tolyl)ethyl)thio)-1H-benzo[d]imidazole] | 32.25 ± 0.12 | 35.01 ± 0.25 |  | 
